{"source": "paper PMC2896318", "about": "(Biochemistry, 2009)", "key": {"[1]": {"target": "T1, Enterobacter cloacae P99 β-lactamase (Enterobacter cloacae, UniProt P05364)", "T1 sequence (P05364 21-381)": "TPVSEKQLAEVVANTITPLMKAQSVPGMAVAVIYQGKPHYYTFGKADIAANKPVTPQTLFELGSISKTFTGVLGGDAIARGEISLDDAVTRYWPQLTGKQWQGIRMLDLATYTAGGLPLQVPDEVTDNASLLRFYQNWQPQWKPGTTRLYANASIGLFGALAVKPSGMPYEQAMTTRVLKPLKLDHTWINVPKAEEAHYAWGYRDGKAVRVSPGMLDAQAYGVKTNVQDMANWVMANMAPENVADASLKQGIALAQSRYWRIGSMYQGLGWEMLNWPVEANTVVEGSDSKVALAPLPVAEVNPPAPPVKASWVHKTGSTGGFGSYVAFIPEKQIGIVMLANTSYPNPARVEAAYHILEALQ", "conditions": "for Ki: read-out: P99 K1"}, "[2]": {"target": "T1, Enterobacter cloacae P99 β-lactamase", "conditions": "previously determined ratio; cited from earlier work"}, "[3]": {"assay": "Spontaneous hydrolysis of diaroyl phosphates in buffer", "format": "physicochemical", "conditions": "values are ko × 10^6; 25 mM MOPS buffer, pH 7.5, 25 °C"}, "[4]": {"target": "Escherichia coli W3310 TEM-2 β-lactamase (Escherichia coli, UniProt P62593, Q37K)", "assay": "Inhibition and turnover kinetics with TEM-2 β-lactamase", "format": "biochemical", "conditions": "for TEM k2 × 10^3 (deacylation rate constant): values are k2 × 10^3, pH 7.5, 25 °C"}, "[5]": {"target": "OXA-1 β-lactamase (Escherichia coli, UniProt P13661)", "sequence (P13661 26-276)": "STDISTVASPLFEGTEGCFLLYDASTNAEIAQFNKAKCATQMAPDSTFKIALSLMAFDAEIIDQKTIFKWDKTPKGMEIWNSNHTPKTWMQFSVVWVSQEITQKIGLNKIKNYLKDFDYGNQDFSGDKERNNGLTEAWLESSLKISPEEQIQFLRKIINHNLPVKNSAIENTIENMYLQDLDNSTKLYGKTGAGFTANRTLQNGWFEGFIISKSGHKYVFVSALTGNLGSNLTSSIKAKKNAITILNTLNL", "assay": "Inhibition of class D β-lactamase OXA-1", "format": "biochemical"}, "[6]": {"target": "T1, Enterobacter cloacae P99 β-lactamase", "assay": "biochemical"}, "[7]": {"conditions": "high inhibitor concentrations (>100 μM)"}, "[8]": {"conditions": "footnote b: calculated from ki = k2/Ki"}}, "note": "Read-outs that look alike come from different tables or passages of the source."}
{"smiles": "O=C(OP(=O)(O)OC(=O)c1ccccc1)c1ccccc1", "note": "[compound 5, dibenzoyl phosphate]", "values": [{"measurement": "P99 k2 × 10^3 (deacylation rate constant)", "setting": "[1]; pH 7.5", "value": "9.3 ± 0.2", "unit": "s^−1"}, {"measurement": "P99 ki (acylation rate constant)", "setting": "[1]; pH 7.5", "value": "7 ± 1", "unit": "s⁻¹ mM⁻¹"}, {"measurement": "Ki", "setting": "[1]", "value": 1.33, "unit": "µM"}, {"measurement": "k3/k2 (methanol vs water partitioning of acyl-enzyme)", "setting": "[2]", "value": 23.6}, {"measurement": "ko × 10^6 (spontaneous hydrolysis rate constant)", "setting": "[3]", "value": 0.78, "unit": "s^−1"}, {"measurement": "k3 (rearrangement of EI to more inert EI′, Scheme 5)", "setting": "[4]; [7]", "value": "(3.3 ± 0.7) × 10^−4 s^−1"}, {"measurement": "k4 (breakdown of EI′ to free enzyme, Scheme 5)", "setting": "[4]; [7]", "value": 0.00015, "unit": "s⁻¹"}, {"measurement": "TEM ki (acylation rate constant)", "setting": "[4]; pH 7.5, 20 mM MOPS, 25 °C, from progress curve fits", "value": "0.5 ± 0.1", "unit": "s⁻¹ mM⁻¹"}, {"measurement": "Ki", "setting": "[4]; read-out: TEM Ki, footnote a: calculated from Ki = k2/ki", "value": 76, "unit": "µM"}, {"measurement": "TEM k2 × 10^3 (deacylation rate constant)", "setting": "[4]", "value": "38 ± 3", "unit": "s^−1"}]}
{"smiles": "O=C(OP(=O)([O-])OC(=O)c1cc2ccccc2s1)c1cc2ccccc2s1.[Na+]", "note": "[compound 11, Sodium bis[benzo(b)thiophenecarbonyl] phosphate]", "values": [{"measurement": "P99 ki (acylation rate constant)", "setting": "[1]", "value": "69600 ^b s^−1mM^−1"}, {"measurement": "P99 k2 × 10^3 (deacylation rate constant)", "setting": "[1]; pH 7.5", "value": "211 ± 6", "unit": "s^−1"}, {"measurement": "Ki", "setting": "[1]", "value": 0.003, "unit": "µM"}, {"measurement": "ko × 10^6 (spontaneous hydrolysis rate constant)", "setting": "[3]", "value": 54.1, "unit": "s^−1"}, {"measurement": "TEM ki (acylation rate constant)", "setting": "[4]; [8]", "value": "53 ^b s^−1mM^−1"}, {"measurement": "TEM k2 × 10^3 (deacylation rate constant)", "setting": "[4]", "value": "79 ± 2", "unit": "s^−1"}, {"measurement": "Ki", "setting": "[5]; read-out: Ki for OXA-1, class D β-lactamase", "value": 0.06, "unit": "µM"}]}
{"smiles": "O=C(OP(=O)([O-])OC(=O)c1cc2ccccc2o1)c1cc2ccccc2o1.[Na+]", "note": "[compound 12, Sodium bis[2-benzo(b)furancarbonyl] phosphate]", "values": [{"measurement": "P99 k2 × 10^3 (deacylation rate constant)", "setting": "[1]; values are k2 × 10^3, pH 7.5, 25 °C", "value": "354 ± 26", "unit": "s^−1"}, {"measurement": "ko × 10^6 (spontaneous hydrolysis rate constant)", "setting": "[3]", "value": 285, "unit": "s^−1"}, {"measurement": "Ki", "setting": "[6]", "value": "1.3 ± 0.3", "unit": "µM"}, {"measurement": "TEM ki (acylation rate constant)", "setting": "[4]; [8]", "value": "1.8 ^b s^−1mM^−1"}, {"measurement": "TEM k2 × 10^3 (deacylation rate constant)", "setting": "[4]", "value": "74 ± 1", "unit": "s^−1"}, {"measurement": "Ki", "setting": "[5]", "value": 14.2, "unit": "µM"}]}
